Results published in patent publication US6814951B1, “Acetaldehyde and malondialdehyde protein adducts as markers for alcohol liver disease” (The Board of Regents of the University of Nebraska, priority 1995, dated 2004).

How the values were obtained:
[1] = target: affinity-purified polyclonal antibody specific for MAA adducts; test: Competitive ELISA: inhibition of MAA-specific antibody binding to solid-phase BSA-MAA; design: species or system rabbit; conditions: for 50% inhibitory concentration: bovine serum albumin-MAA as solid phase antigen
Excerpt: A competitive ELISA was developed in order to detect the presence and to quantify the level of MDA/acetaldehyde modified proteins. Following the basic methodology developed by Roberts, et al, “A Sensitive Immunochemical Assay for Acetaminophen-Protein Adducts”, J Pharmacol Exp Ther, 1987; 241:527-533; Pumford, et al, “Immunochemical Quantitation of 3-(cystein-S-yl)Acetaminophen Adducts in Serum and Liver Proteins of Acetaminophen-Treated Mice”, J Pharmacol Exp Ther, 1989; 248:190-196, incorporated herein by reference, these assays were conducted by allowing a limiting amount of antibody to react with inhibitor, either standard or unknown, in the presence of excess solid phase antigen (MDA/acetaldehyde modified proteins). […] Biotinylated antibody (1/500 final dilution) was incubated with varying concentrations of test samples (standards or unknowns) overnight at 4° C., and then a 100 μl-aliquot of each sample was added to duplicate wells of the coated plates and incubated for 45 minutes at 37° C. After washing, 100 μl of alkaline phosphatase-conjugated streptavidin was added, and procedures as described above for the Direct ELISA were used to obtain optical density measurements. […] [formula]
where ODmax is OD in the absence of inhibitor, BKG is OD from nonspecific absorption of assay reagents and ODsample is the OD for a given concentration of standard or unknown sample.
An immunological assay, using an affinity-purified polyclonal antibody specific for MAA adducts, was employed to detect the presence of these adducts in livers of ethanol-fed rats. Since MAA adducts are likely composed of more than one distinct product, applicants proposed that 4-methyl-1,4-dihydropyridine-3,5-dicarbaldehyde (MDDC), derivatized to an ε-amino group of lysine, represents a structure for one of the major MAA-protein adducts. The purpose of this study was to characterize the antigen binding properties of the MAA specific antibody and determine whether MDDC epitopes are a major determinant of antibody recognition. A competitive ELISA, utilizing bovine serum albumin-MAA as the solid phase antigen, was used to test the binding specificity of the antibody.

Balc/c mice = test: Immunization of mice with BSA or BSA-MAA, antiserum titration by ELISA; assay type: in vivo; conditions: antiserum tested on MSA and MSA-MAA
Method: The purpose of this study was to determine how modification of a soluble carrier protein with the MAA adduct alters the humoral immune response. Balc/c mice were immunized weekly by i.p. injection with 100 μg of either bovine serum albumin unmodified (BSA) or modified with MAA (BSA-MAA). Titration of antiserum was performed by ELISA on wells coated with either BSA, BSA-MAA, mouse albumin (MSA) and MSA-MAA. […] In mice immunized with lower concentrations of BSA-MAA, antibody titers decreased in a dose dependent manner to both BSA and BSA-MAA (>1:3200 at 100 μg to 1:2000 at 25 μg).

[2] = target: T1, bovine serum albumin (BSA) (Bos taurus, UniProt P02769); test: Stable binding of acetaldehyde to proteins in the presence of MDA; assay type: biochemical; conditions: acetaldehyde 1 mM, 24 hours of incubation, 4-fold molar excess of MDA
T1 construct: purchased Sigma Chemical Co. (St. Louis, Mo.)
Method: Concentrations of acetaldehyde (0.1 mM or 1.0 mM) were incubated with various protein solutions in the absence and presence of varying concentrations of MDA. Incubations were conducted in phosphate buffer (0.1 M, pH 7.4) at 37° C. in polypropylene vessels that were sealed to minimize the loss of volatile radioactivity. The reactions were performed under nitrogen gas in the dark. During a 72-hr incubation period, aliquots were removed for stable acetaldehyde binding determinations and fluorescence measurements as previously described. Hoffmann, “Reaction of Acetaldehyde with Proteins: Formation of Stable Fluorescent Adducts”, Alcohol Clin Exp Res, 1993; 17:69-74. Briefly, postincubation, free and unstable-bound acetaldehyde were separated by exhaustive dialysis against phosphate buffer for 24 hours at 4° C. Radioactivity was then measured in the retenate and represented stably bound acetaldehyde. Results are expressed as nmoles acetaldehyde bound per mg of protein. Fluorescence measurements were obtained on post-dialysis samples using a Perkin Elmer LS-5B spectrophotofluorometer attached to a Perkin Elmer GP-100 graphics printer.
When acetaldehyde (1 mM) was incubated with bovine serum albumin (BSA) in the presence of varying concentrations of MDA over a 72-hour time course, MDA markedly stimulated the binding of acetaldehyde to BSA in a concentration-dependent manner. […]

T1 sequence (P02769 25-607): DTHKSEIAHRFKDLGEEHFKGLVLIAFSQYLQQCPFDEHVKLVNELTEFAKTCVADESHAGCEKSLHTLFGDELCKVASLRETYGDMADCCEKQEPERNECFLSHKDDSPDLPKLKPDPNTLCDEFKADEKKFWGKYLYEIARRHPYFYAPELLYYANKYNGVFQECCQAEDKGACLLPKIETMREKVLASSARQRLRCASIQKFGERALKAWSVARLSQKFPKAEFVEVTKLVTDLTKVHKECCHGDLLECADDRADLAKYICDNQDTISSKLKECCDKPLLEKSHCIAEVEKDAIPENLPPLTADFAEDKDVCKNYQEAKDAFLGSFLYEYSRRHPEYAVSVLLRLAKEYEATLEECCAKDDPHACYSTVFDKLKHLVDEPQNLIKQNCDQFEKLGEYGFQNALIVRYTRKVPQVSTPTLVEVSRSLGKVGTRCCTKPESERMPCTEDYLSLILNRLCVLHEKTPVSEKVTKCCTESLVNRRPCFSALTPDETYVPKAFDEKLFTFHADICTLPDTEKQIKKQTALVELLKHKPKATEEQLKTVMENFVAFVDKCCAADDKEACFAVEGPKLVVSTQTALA

In the case of CC1C(C=O)=CNC=C1C=O [1-hydrogen MDDC, 4-methyl-1,4-dihydropyridine-3,5-dicarbaldehyde], the 50% inhibitory concentration [1] is reported as 240 pmoles/well.

“BSA-MAA: bovine serum albumin modified with MAA (malondialdehyde-acetaldehyde adduct)” was tested, and the “antibody titer to the MAA adduct (tested on MSA-MAA)” value (Balc/c mice) was “significant antibody titer” and the “response to the autologous protein (MSA)” value (Balc/c mice) was “no response”.

CCCCCCN1C=C(C=O)C(C)C(C=O)=C1 [1-hexyl-MDDC] gave a 50% inhibitory concentration [1] of 4 pmoles/well.

In the case of O=CCC=O [MDA, malondialdehyde], the “stimulation of acetaldehyde binding to BSA” value [2] is reported as 13 fold.

In the case of NC(=O)C1=CN([C@@H]2O[C@H](COP(=O)(O)OP(=O)(O)OC[C@H]3O[C@@H](n4cnc5c(N)ncnc54)[C@H](O)[C@@H]3O)[C@@H](O)[C@H]2O)C=CC1 [NADH, reference compound], the “inhibition of antibody binding” value [1] is reported as “negligible inhibitions”.

Cc1ncc(CO)c(C=O)c1O [pyridoxal, reference compound] was tested, and the “inhibition of antibody binding” value [1] was “negligible inhibitions”.

For CC1C(C=O)=CN(C)C=C1C=O [1-methyl MDDC], the 50% inhibitory concentration [1] was 14 pmoles/well.
